Data reported in PMC11054271, “ABCG2 Transports the Flukicide Nitroxynil and Affects Its Biodistribution and Secretion into Milk” (Pharmaceutics, 2024).

Assays:
[1] = biological target: T1, bovine ABCG2 (Bos taurus, UniProt Q4GZT4); assay: Transepithelial transport assay in MDCK-II cells transduced with bovine ABCG2; assay type: in vitro ADME; conditions: cattle, MDCK-II bABCG2, nitroxynil 10 µM, no Ko143, read-out: Relative efflux transport ratio (BA/AB)
T1 construct: expressed in transfected cells; host or cells: MDCK-II (canine kidney) subclone generated by the authors' group
T1 sequence (Q4GZT4 1-655): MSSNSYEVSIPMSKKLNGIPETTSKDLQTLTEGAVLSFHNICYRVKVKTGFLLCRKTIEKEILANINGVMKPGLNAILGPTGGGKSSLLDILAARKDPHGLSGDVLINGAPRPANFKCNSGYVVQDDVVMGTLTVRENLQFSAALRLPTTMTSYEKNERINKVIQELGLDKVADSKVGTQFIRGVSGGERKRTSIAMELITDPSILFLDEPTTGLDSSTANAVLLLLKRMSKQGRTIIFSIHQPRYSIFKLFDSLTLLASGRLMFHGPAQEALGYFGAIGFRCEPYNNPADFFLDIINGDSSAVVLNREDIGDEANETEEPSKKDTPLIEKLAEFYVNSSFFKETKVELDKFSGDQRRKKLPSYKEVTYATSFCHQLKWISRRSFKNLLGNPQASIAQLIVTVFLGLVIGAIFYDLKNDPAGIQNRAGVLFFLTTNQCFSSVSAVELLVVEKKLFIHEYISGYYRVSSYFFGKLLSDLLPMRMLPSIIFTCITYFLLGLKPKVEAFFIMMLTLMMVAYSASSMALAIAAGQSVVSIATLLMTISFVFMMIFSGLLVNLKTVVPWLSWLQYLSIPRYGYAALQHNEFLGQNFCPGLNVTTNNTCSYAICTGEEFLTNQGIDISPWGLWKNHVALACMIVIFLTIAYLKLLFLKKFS
Protocol: (§1) Parental Madin–Darby canine kidney epithelial cells (MDCK–II) and their subclones transduced with murine (mAbcg2) and human (hABCG2) variants of ABCG2 were kindly provided by Dr. A. H. Schinkel (Netherlands Cancer Institute). Transduced MDCK–II cells with the ovine (oABCG2) and bovine (bABCG2) variants were previously generated by our group. Cells were cultured as described elsewhere.
(§2) Transepithelial transport assays were carried out as previously described with minor variations, using Hanks’ balanced salt solution (Sigma-Aldrich) supplemented with HEPES (25 mM), with or without Ko143 (1 μM), and containing or not nitroxynil 10 μM. […] At the end of the experiment, confluence of the monolayer was measured with the previously described Lucifer Yellow permeability test, with minor modifications. The appearance of nitroxynil in the opposite side of the well was measured by HPLC as later described. Active transport was expressed as relative efflux transport ratio (apically directed transport percentage divided by the basolaterally directed translocation percentage) at 4 h and referred to the initial concentration. […]
(§3) Waters 2695 separation module and Waters 2998 UV photodiode array detector set at 270 nm were used for samples analysis. […] Limit of detection (LOD) and quantification (LOQ) were calculated as previously described. […]

[2] = biological target: T2, murine Abcg2 (Mus musculus, UniProt Q7TMS5); assay: Transepithelial transport assay in MDCK-II cells transduced with murine Abcg2; assay type: in vitro ADME; parameters: expressed in transfected cells; host or cells: MDCK-II (canine kidney) subclone, provided by A. H. Schinkel (Netherlands Cancer Institute); conditions: MDCK-II mAbcg2, nitroxynil 10 µM, no Ko143, read-out: Relative efflux transport ratio (BA/AB)
T2 sequence (Q7TMS5 1-657): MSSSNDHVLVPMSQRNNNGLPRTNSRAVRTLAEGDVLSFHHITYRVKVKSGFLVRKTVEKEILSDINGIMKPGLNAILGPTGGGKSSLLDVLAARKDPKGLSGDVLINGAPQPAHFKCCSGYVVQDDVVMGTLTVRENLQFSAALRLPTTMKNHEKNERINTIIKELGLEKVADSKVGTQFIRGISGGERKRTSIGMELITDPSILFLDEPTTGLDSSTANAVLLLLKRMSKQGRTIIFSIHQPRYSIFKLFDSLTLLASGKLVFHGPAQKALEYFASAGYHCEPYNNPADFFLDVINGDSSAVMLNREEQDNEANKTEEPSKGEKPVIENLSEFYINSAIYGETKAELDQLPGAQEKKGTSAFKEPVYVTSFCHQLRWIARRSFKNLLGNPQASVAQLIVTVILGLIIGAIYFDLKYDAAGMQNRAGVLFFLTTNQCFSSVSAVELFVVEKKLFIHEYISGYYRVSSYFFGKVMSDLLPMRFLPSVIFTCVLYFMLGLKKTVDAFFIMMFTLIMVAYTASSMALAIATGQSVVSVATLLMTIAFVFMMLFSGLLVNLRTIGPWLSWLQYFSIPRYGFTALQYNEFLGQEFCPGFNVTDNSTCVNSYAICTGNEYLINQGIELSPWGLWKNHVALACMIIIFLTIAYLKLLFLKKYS
Protocol: as §1, §2, §3

Structure (SMILES): N#Cc1cc(I)c(O)c([N+](=O)[O-])c1 [nitroxynil]
- efflux ratio at 4 h, 10 µM [1]: 3.25 ± 0.14
- efflux ratio at 4 h, 10 µM [2]: 32.3 ± 7.59
